Measurements from a melting point compilation (Tetko et al.; mined from patent text by program, amines drawn as free bases though some values may be those of a salt).

melting point [°C]	Structure (SMILES)
144 to 150	Nc1ccc2c(c1)C(CN1CCCCC1)CO2 (centres undefined)
117 to 118	COc1ccc(C2CCN(C(=O)C(N)=O)CC2)cc1CC1CCCC1
98 to 100	CC(=O)Nc1ccn([C@@H]2C[C@H](OC(C)=O)[C@@H](O)[C@H]2O)c(=O)n1 (racemic)
196	CCOC(=O)c1c(N2CCN(C(=O)c3cccs3)CC2)c2cccnc2n(Cc2ccc(F)cc2)c1=O
281 to 282	COc1ccc2nc3ccc(CC(=O)O)cn3c(=O)c2c1
127 to 130	Cc1cc(C(=O)N2Cc3ccc(C(=O)N(CCO)CCO)n3Cc3ccccc32)ccc1-c1ccccc1C(F)(F)F
141 to 142	Cc1nnc(-c2ccc3occ(-c4ccc(SCc5ccccc5C#N)cc4)c3c2)o1
157 to 158	CS(=O)(=O)NC(=O)CNC(=O)NCCCCC1CCSS1 (centres undefined)
79 to 80	Cc1c(C)c2c(c(C)c1N)CC(C)(CN1CCC(CCCc3ccccc3)CC1)O2 (centres undefined)
179 to 180	Cc1cc(C)cc(S(=O)(=O)c2ccc([N+](=O)[O-])cc2)c1
145 to 146	c1ccc2c(c1)-c1ccccc1C2Cc1nc(COc2ccc(CCCn3ccnc3)cc2)co1
141 to 142	O=S(=O)(ON=C1CCCc2ccccc21)c1ccc(O)cc1
272 to 274	C=Cn1cc(C(=O)O)c(=O)c2cc(Cl)c(N3CCNCC3)nc21
244 to 246	COCC1(C)Oc2ccccc2C(n2ccccc2=O)C1O (centres undefined)
196 to 197	c1cn(CCOc2ccc(-c3nnn[nH]3)cc2)cn1
233 to 234	CCOC(=O)c1ccc2nccc(O)c2c1
211 to 212	O=C(Nc1c(C(O)(C(F)(F)F)C(F)(F)F)ccc2ccccc12)c1cccc([N+](=O)[O-])c1
66 to 69	CC(=O)C1C(=O)CC(C#N)CC1=O (centres undefined)

melting point [°C]	Structure (SMILES)
200 to 202	COc1cc(-c2ccc(N3CCCN(c4ccc(-c5cc(OC)c(O)c(OC)c5)cn4)CC3)nc2)cc(OC)c1O
47.5 to 49.5	CCN(CC)NC(C)=O
173 to 174	Cc1oc(-c2ccc3ccccc3c2)nc1/C=C/c1ccc(CO)cc1
171 to 174	COC(=O)c1cccc(Cn2ccc(OCc3ccc(F)cc3F)c(Cl)c2=O)c1F
50 to 51	COc1ccc2c(c1)CCC(Cc1ccccc1)C2=O (centres undefined)
252 to 255	O=C1Nc2cc(Cl)cc3c2N(CC3)c2ccccc21
114 to 115	Cn1c(C=O)cnc1[N+](=O)[O-]
210 to 215	Cc1nc(N2CCN(CC3CC3(F)F)C2=O)sc1C(=O)O (centres undefined)
160 to 161	CC(NS(=O)(=O)c1ccc([N+](=O)[O-])cc1[N+](=O)[O-])c1ccccc1 (centres undefined)
96 to 98	CCCCCCCCCN(C[C@H]1CC[C@H](CN(CCCCCCCCC)C(=O)Nc2ccc(N(C)C)cc2)CC1)C(=O)Nc1ccc(N(C)C)cc1
214 to 215	CC(C)n1nc(-c2cnc(N)nc2-c2ccccc2)ccc1=O
96 to 97	CCOC(=O)c1ncc2[nH]c3ccc(C(C)OC)cc3c2c1C (centres undefined)
90 to 96	Cn1c(=O)c2ccccc2n(CCCBr)c1=O
68 to 69	C[N+](C)([O-])CC#CC1=Cc2ccccc2Sc2ccc(Cl)cc21
120 to 122	O=C(O)C(OCc1ccc(-c2ccc(Cl)cc2)cc1)c1ccc(Cl)cc1 (centres undefined)
234 to 236	CCn1c(=O)c2c(nc(/C=C/c3ccc(OC(=O)c4ccccc4)c(OC)c3)n2C)n(CC)c1=O
204 to 206	COc1ccc2c3c(n(C)c2c1)SCCC3=O

Structure (SMILES)	melting point [°C]
O=C(O)CC[C@H]1CC[C@H]2CN[C@H](C(=O)O)C[C@H]2C1 (racemic)	190 to 191
CC(C)n1cc(C(=O)O)c2ccc([N+](=O)[O-])cc21	242 to 243
Cc1cccc(-c2[nH]nnc2-c2ccc3c(c2)N(CCN2CCOCC2)C(=O)CO3)n1	150
Cc1ccc(S(=O)(=O)NC2N=C(c3ccccc3F)c3ccccc3NC2=O)cc1 (racemic)	215 to 216
